# Data reported in the supplement of paper PMC10307832.
# Columns and labels:
# Assay in all cases: relative viability (nuclei count vs DMSO), 5 days (fraction); higher = more cells survive
# [1] = compound: NCC(=O)Nc1ccc(-n2nc(C(F)(F)F)cc2-c2ccc3c(ccc4ccccc43)c2)cc1 + O=C(CCCCCCC(=O)Nc1ccccc1)NO [Vorinostat] (partner 1 µM)
# Procedure, shortened: (§1)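 Lung cancer cell lines, seeded in 1536-well plates, were treated the following day by pin tool with a single drug or with five library-drug doses (not always all listed) in √10 steps on top of a fixed anchor-drug dose. Cells were fixed and nuclei stained in one step after 5 days, and nuclei were counted. Relative viability is the nuclei count for treated wells divided by that for vehicle wells, reported as medians of duplicate plates.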
# [2] = compound: C1CSC2=C(C(=O)N1)SC3=C2C=C(C=C3)O [kb NB 142-70] + C[C@@H](Oc1cc(-c2cnn(C3CCNCC3)c2)cnc1N)c1c(Cl)ccc(F)c1Cl [Crizotinib] (partner 1 µM)
# Procedure, shortened: as §1
# [3] = compound: NCC(=O)Nc1ccc(-n2nc(C(F)(F)F)cc2-c2ccc3c(ccc4ccccc43)c2)cc1 + Cc1cc(Nc2cc(N3CCN(C)CC3)nc(Sc3ccc(NC(=O)C4CC4)cc3)n2)n[nH]1 [Tozasertib] (partner 0.1 µM)
# Procedure, shortened: as §1
# [4] = compound: C1CSC2=C(C(=O)N1)SC3=C2C=C(C=C3)O [kb NB 142-70] + CC(=O)Nc1cccc(-n2c(=O)n(C3CC3)c(=O)c3c(Nc4ccc(I)cc4F)n(C)c(=O)c(C)c32)c1 [Trametinib] (partner 0.02 µM)
# Procedure, shortened: as §1
# [5] = compound: C1CSC2=C(C(=O)N1)SC3=C2C=C(C=C3)O [kb NB 142-70] + Nc1ncn([C@H]2C[C@H](O)[C@@H](CO)O2)c(=O)n1 [Decitabine] (partner 2 µM)
# Procedure, shortened: as §1
Cell Line,relative viability ([1]; first compound 0.02 µM),relative viability ([1]; first compound 0.06325 µM),relative viability ([1]; first compound 0.2 µM),relative viability ([1]; first compound 0.6325 µM),relative viability ([1]; first compound 2 µM),relative viability ([2]; first compound 0.1 µM),relative viability ([2]; first compound 1 µM),relative viability ([2]; first compound 3.162 µM),relative viability ([3]; first compound 0.02 µM),relative viability ([3]; first compound 0.06325 µM),relative viability ([3]; first compound 0.2 µM),relative viability ([3]; first compound 0.6325 µM),relative viability ([3]; first compound 2 µM),relative viability ([4]; first compound 0.1 µM),relative viability ([4]; first compound 1 µM),relative viability ([4]; first compound 3.162 µM),relative viability ([5]; first compound 0.1 µM),relative viability ([5]; first compound 1 µM),relative viability ([5]; first compound 3.162 µM)
HCC-44,1.17,1.19,1.03,1.05,1.12,0.777,0.883,0.907,1.03,1.26,0.879,0.803,0.829,1.06,1.06,1.1,0.946,0.993,1.01
HCC-827,0.906,0.335,0.876,0.9,0.834,0.918,0.947,0.921,0.38,0.437,0.389,0.427,0.446,0.539,0.53,0.395,0.31,0.288,0.274
NCI-H1623,–,–,–,–,–,–,–,–,0.407,0.429,0.464,0.396,0.488,–,–,–,–,–,–
NCI-H2347,0.604,0.688,0.685,0.611,0.673,0.685,0.707,0.594,0.586,0.71,0.482,0.618,0.73,0.259,0.267,0.233,0.651,0.613,0.58
PC-14,0.685,0.62,–,0.659,0.657,0.933,0.909,0.92,0.634,0.606,0.543,0.517,0.651,0.808,0.769,0.799,0.187,0.284,0.193
NCI-H1651,0.593,0.442,0.543,0.612,0.554,0.908,0.842,0.879,0.703,0.694,0.906,0.588,0.676,0.786,0.858,0.834,0.61,0.607,0.491
HARA,0.552,0.518,0.596,0.578,0.551,0.922,0.817,0.922,0.0731,0.108,0.12,0.0964,0.0949,0.464,0.726,1.02,0.538,0.372,0.286
NCI-H1650,0.71,0.676,0.556,0.692,0.559,0.833,1.01,1.08,0.389,0.438,–,0.453,0.347,0.557,0.507,0.761,0.492,0.408,0.442
NCI-H1395,0.761,0.82,0.686,0.646,0.924,–,–,–,0.724,0.75,0.778,0.794,0.706,1.02,0.891,1.02,0.635,0.726,0.609
